For one assay, the target named is T1, Human FXIa (Homo sapiens, UniProt P03951).
T1 construct: purchased Enzyme Research Laboratories
The assay can be described thus: Determination of FXIa inhibitory activity in vitro (fluorogenic substrate Z-Gly-Pro-Arg-AFC). It counts as biochemical. To be noted: Selectivity, Human FXIa (Enzyme Research Laboratories), 25° C.

The target in a further assay is T2, Human Factor XIIa (Homo sapiens, UniProt P00748).
T2 construct: purchased Enzyme Research Laboratories
T2 sequence (P00748 373-615 limits assumed): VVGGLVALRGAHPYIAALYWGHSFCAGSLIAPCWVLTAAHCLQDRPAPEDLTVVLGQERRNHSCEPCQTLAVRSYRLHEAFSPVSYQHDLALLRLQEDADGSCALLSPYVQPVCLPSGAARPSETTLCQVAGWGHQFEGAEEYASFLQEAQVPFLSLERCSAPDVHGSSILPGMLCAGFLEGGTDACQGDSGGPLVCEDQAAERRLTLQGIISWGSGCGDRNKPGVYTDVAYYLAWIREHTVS
T2 sequence (P00748 20-372 partner limits assumed): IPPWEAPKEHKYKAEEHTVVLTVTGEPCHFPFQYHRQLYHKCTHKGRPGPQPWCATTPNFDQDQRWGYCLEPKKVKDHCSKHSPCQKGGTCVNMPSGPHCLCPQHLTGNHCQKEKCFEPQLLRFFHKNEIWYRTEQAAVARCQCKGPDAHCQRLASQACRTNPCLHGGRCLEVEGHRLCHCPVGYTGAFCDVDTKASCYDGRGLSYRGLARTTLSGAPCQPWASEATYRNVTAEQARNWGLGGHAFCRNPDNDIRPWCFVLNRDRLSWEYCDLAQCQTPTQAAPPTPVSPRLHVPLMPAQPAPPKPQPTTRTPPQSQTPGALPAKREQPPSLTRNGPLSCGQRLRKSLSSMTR
Nature of the assay: Determination of Factor XIIa inhibitory activity in vitro (fluorogenic substrate H-DPro-Phe-Arg-AFC). It counts as biochemical. To be noted: Human Factor XIIa (Enzyme Research Laboratories), 25° C., read-out: Human FXIIa IC50. The method, boiled down: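 In vitro inhibition of human Factor XIIa (sourced from Enzyme Research Laboratories) was measured by incubating the enzyme at 25° C. with the fluorogenic substrate H-DPro-Phe-Arg-AFC across a range of test compound concentrations. The initial reaction rate, taken as residual enzyme activity, was followed by the […], and IC50 values were calculated.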

Where only a bound is given, the exact number is not on record here.

T1 sequence (P03951 388-625 limits assumed): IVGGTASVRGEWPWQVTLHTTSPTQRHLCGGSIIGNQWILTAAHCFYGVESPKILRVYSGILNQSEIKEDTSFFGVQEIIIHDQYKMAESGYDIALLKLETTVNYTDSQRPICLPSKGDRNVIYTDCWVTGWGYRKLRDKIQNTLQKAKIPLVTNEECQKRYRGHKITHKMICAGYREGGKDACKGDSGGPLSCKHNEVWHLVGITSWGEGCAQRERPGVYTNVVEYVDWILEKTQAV
T1 sequence (P03951 19-387 partner limits assumed): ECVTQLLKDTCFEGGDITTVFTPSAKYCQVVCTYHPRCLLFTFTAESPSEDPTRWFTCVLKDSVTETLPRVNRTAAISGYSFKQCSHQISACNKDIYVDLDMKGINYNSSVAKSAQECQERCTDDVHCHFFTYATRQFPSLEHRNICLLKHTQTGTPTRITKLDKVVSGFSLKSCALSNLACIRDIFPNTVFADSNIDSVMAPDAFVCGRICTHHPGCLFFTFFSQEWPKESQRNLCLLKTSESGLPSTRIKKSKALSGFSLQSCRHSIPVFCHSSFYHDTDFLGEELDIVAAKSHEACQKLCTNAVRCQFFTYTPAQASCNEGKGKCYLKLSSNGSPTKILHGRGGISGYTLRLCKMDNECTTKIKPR

By IC50 is commonly meant the point on the concentration scale where inhibition reaches its midpoint. Regarding `COCCNc1ncc(C(=O)NCc2ccc3c(N)nccc3c2)cc1Cl` [Example 11.29], the figures for the IC50 against Human FXIa and at Human Factor XIIa were greater than 40 µM and 10 to 40 µM, respectively.

Turning to `CN(C)CCNc1ncc(C(=O)NCc2ccc3c(N)nccc3c2)cc1Cl` [Example 11.30], the IC50 is greater than 40 µM against Human FXIa and 10 to 40 µM on Human Factor XIIa.

As to `Nc1nccc2cc(CNC(=O)c3cnc(NCCn4cncn4)c(Cl)c3)ccc12` [Example 11.31], the IC50 at Human FXIa is greater than 40 µM; on Human Factor XIIa, 10 to 40 µM.

As for `CN1C(C)(C)CC(Nc2ncc(C(=O)NCc3ccc4c(N)nccc4c3)cc2Cl)CC1(C)C` [Example 11.32], the IC50 against Human FXIa was greater than 40 µM; on Human Factor XIIa, 10 to 40 µM.

Consider `CN1CCC(Nc2ncc(C(=O)NCc3ccc4c(N)nccc4c3)cc2Cl)CC1` [Example 11.33], for which the figures for the IC50 against Human FXIa and at Human Factor XIIa were greater than 40 µM and 10 to 40 µM, respectively.

`Nc1nccc2cc(CNC(=O)c3cnc(NC4CCNCC4)c(Cl)c3)ccc12` [Example 11.34]: the values for the IC50 on Human FXIa and on Human Factor XIIa were greater than 40 µM and 10 to 40 µM, respectively.

As for `CN1CCC(Nc2ncc(C(=O)NCc3ccc4c(N)nccc4c3)cc2Cl)CC1=O` (stereo not shown) [Example 11.35], the IC50 at Human FXIa is greater than 40 µM; at Human Factor XIIa, 10 to 40 µM.

Consider `CC(C)N1CCC(Nc2ncc(C(=O)NCc3ccc4c(N)nccc4c3)cc2Cl)CC1` [Example 11.36], for which the IC50 at Human FXIa was greater than 40 µM; at Human Factor XIIa, 3 to 10 µM.

Turning to `CC(C)CN1CCC(Nc2ncc(C(=O)NCc3ccc4c(N)nccc4c3)cc2Cl)CC1` [Example 11.37], the IC50 against Human FXIa was greater than 40 µM; at Human Factor XIIa, 10 to 40 µM.

In the case of `CS(=O)(=O)N1CCC(Nc2ncc(C(=O)NCc3ccc4c(N)nccc4c3)cc2Cl)CC1` [Example 11.38], the IC50 against Human FXIa is greater than 40 µM; at Human Factor XIIa it was 10 to 40 µM.

Regarding `CC(=O)N1CCC(Nc2ncc(C(=O)NCc3ccc4c(N)nccc4c3)cc2Cl)CC1` [Example 11.39], the IC50 against Human FXIa is greater than 40 µM; at Human Factor XIIa it was 10 to 40 µM.

As for `Nc1nccc2cc(CNC(=O)c3cnc(NC4CCN(c5nccs5)CC4)c(Cl)c3)ccc12` [Example 11.40], the IC50 against Human FXIa is greater than 40 µM; on Human Factor XIIa, 10 to 40 µM.

For `COCCN1CCC(Nc2ncc(C(=O)NCc3ccc4c(N)nccc4c3)cc2Cl)CC1` [Example 11.41], the IC50 on Human FXIa was greater than 40 µM; at Human Factor XIIa it was 10 to 40 µM.

As for `Nc1nccc2cc(CNC(=O)c3cnc(NC4CCN(C5CC5)CC4)c(Cl)c3)ccc12` [Example 11.42], the IC50 at Human FXIa was greater than 40 µM; on Human Factor XIIa, 10 to 40 µM.

In the case of `Nc1nccc2cc(CNC(=O)c3cnc(OCCN4CCCCC4)c(Cl)c3)ccc12` [Example 13.26, N-((1-aminoisoquinolin-6-yl)methyl)-5-chloro-6-(2-(piperidin-1-yl)ethoxy)nicotinamide], the IC50 at Human FXIa was greater than 40 µM; on Human Factor XIIa, 3 to 10 µM.

Consider `Nc1nccc2cc(CNC(=O)c3cnc(OCCCN4CCCCC4)c(Cl)c3)ccc12` [Example 13.27], for which the IC50 against Human FXIa is greater than 40 µM; on Human Factor XIIa it was 3 to 10 µM.

Turning to `Nc1nccc2cc(CNC(=O)c3cc(Cl)cnc3N3CCN(c4ncccn4)CC3)ccc12` [Example 16.04], the IC50 at Human FXIa is greater than 40 µM; on Human Factor XIIa it was 10 to 40 µM.

In the case of `CC(=O)NCCN1CCN(c2ncc(Cl)cc2C(=O)NCc2ccc3c(N)nccc3c2)CC1` [Example 16.05], the IC50 against Human FXIa is greater than 40 µM; at Human Factor XIIa, 3 to 10 µM.

In the case of `Nc1nccc2cc(CNC(=O)c3ccc(CN4CCN(c5ccncc5)CC4)c(Cl)c3)ccc12` [Example 29.07, N-((1-aminoisoquinolin-6-yl)methyl)-3-chloro-4-((4-(pyridin-4-yl)piperazin-1-yl)methyl)benzamide], the figures for the IC50 on Human FXIa and on Human Factor XIIa were 21 µM and 10 to 40 µM, respectively.

As for `Nc1nccc2cc(CNC(=O)c3cnc(CN4CCN(c5ccncc5)CC4)c(Cl)c3)ccc12` [Example 29.08, N-[(1-amino-6-isoquinolyl)methyl]-5-chloro-6-[[4-(4-pyridyl)piperazin-1-yl]methyl]pyridine-3-carboxamide], the values for the IC50 against Human FXIa and at Human Factor XIIa were greater than 40 µM and 10 to 40 µM, respectively.

`CN1CCC(CNc2ncc(Cl)cc2C(=O)NCc2c(Cl)cccc2-n2cnnn2)CC1` [Example 33.01, 5-Chloro-N-{[2-chloro-6-(1,2,3,4-tetrazol-1-yl)phenyl]methyl}-2-{[(1-methylpiperidin-4-yl)methyl]amino}pyridine-3-carboxamide]: the IC50 was greater than 40 µM on Human FXIa and 3 to 10 µM at Human Factor XIIa.

On to `CN1CCC(CNc2nccnc2C(=O)Nc2ccc3c(c2)C(=O)NC3)CC1` [Example 33.02], for which the IC50 is 20 µM at Human FXIa and 10 to 40 µM on Human Factor XIIa.

On to `CN1CCC(CNc2nccnc2C(=O)Nc2ccc3nc[nH]c(=O)c3c2)CC1` [Example 33.03], for which the values for the IC50 against Human FXIa and on Human Factor XIIa were 20 µM and 10 to 40 µM, respectively.

In the case of `CN1CCC(CNc2nccnc2C(=O)Nc2ccc3ccnc(N)c3c2)CC1` [Example 33.04], the IC50 was greater than 40 µM on Human FXIa and 10 to 40 µM on Human Factor XIIa.

Take `CCOC(=O)c1cn(-c2ccc(OC)c(F)c2CNC(=O)c2nccnc2NCC2CCN(C)CC2)nn1` [Example 33.05]: the IC50 is 33.5 µM against Human FXIa and 3 to 10 µM at Human Factor XIIa.

For `CN1CCC(CNc2nccnc2C(=O)NCCc2cnc[nH]2)CC1` [Example 33.06], the values for the IC50 on Human FXIa and on Human Factor XIIa were 20 µM and 10 to 40 µM, respectively.

As for `CN1CCC(CNc2nccnc2C(=O)Nc2ccc3c(N)nccc3c2)CC1` [Example 33.07], the IC50 was greater than 40 µM on Human FXIa and 10 to 40 µM at Human Factor XIIa.

In the case of `CN1CCC(CNc2nccnc2C(=O)Nc2ccc3nccnc3c2)CC1` [Example 33.08], the IC50 was greater than 40 µM on Human FXIa and 10 to 40 µM on Human Factor XIIa.

With `COc1ccc(-n2cc(C(=O)O)nn2)c(CNC(=O)c2nccnc2NCC2CCN(C)CC2)c1F` [Example 33.09, 1-(3-Fluoro-4-methoxy-2-{[(3-{[(1-methylpiperidin-4-yl)methyl]amino}pyrazin-2-yl)formamido]methyl}phenyl)-1,2,3-triazole-4-carboxylic acid], the IC50 at Human FXIa is 33.5 µM; at Human Factor XIIa it was 10 to 40 µM.

Take `Cc1nc2ccc(NC(=O)c3nccnc3NCC3CCN(C)CC3)cc2o1` [Example 33.10]: the results for the IC50 on Human FXIa and at Human Factor XIIa were 20 µM and 10 to 40 µM, respectively.

In the case of `CN1CCC(CNc2nccnc2C(=O)Nc2ccc(-c3n[nH]c(=O)[nH]3)cc2)CC1` [Example 33.11], the IC50 was greater than 40 µM against Human FXIa and 10 to 40 µM on Human Factor XIIa.

In the case of `CN1CCC(CNc2nccnc2C(=O)Nc2cccc3c(N)nccc23)CC1` [Example 33.12, N-(1-aminoisoquinolin-5-yl)-3-(((1-methylpiperidin-4-yl)methyl)amino)pyrazine-2-carboxamide], the IC50 against Human FXIa is greater than 40 µM; at Human Factor XIIa, 1 to 3 µM.

Turning to `CN1CCC(CNc2nccnc2C(=O)N[C@@H]2CCc3c2ccnc3N)CC1` [Example 33.13], the figures for the IC50 at Human FXIa and at Human Factor XIIa were 39.8 µM and 3 to 10 µM, respectively.

Take `CN1CCC(CNc2nccnc2C(=O)Nc2cnc3[nH]cc(Cl)c3c2)CC1` [Example 33.14]: the IC50 at Human FXIa was greater than 40 µM; at Human Factor XIIa, 10 to 40 µM.

Turning to `CN1CCC(CNc2nccnc2C(=O)Nc2cccc3[nH]cc(Cl)c23)CC1` [Example 33.15], the figures for the 50% inhibitory concentration (IC50) against Human FXIa and at Human Factor XIIa were greater than 40 µM and 10 to 40 µM, respectively.

In the case of `CN1CCC(CNc2nccnc2C(=O)NCc2ccc3ccnc(N)c3c2)CC1` [Example 33.16], the IC50 is greater than 40 µM against Human FXIa and 3 to 10 µM on Human Factor XIIa.

Take `COc1ccc(-n2cncn2)c(CNC(=O)c2nccnc2NCC2CCN(C)CC2)c1F` [Example 33.17]: the figures for the IC50 against Human FXIa and on Human Factor XIIa were greater than 40 µM and 10 to 40 µM, respectively.

`Cc1c(CNC(=O)c2nccnc2NCC2CCN(C)CC2)ccc2c(N)nccc12` [Example 33.18, N-((1-amino-5-methylisoquinolin-6-yl)methyl)-3-(((1-methylpiperidin-4-yl)methyl)amino)pyrazine-2-carboxamide]: the IC50 was greater than 40 µM at Human FXIa and 0.3 to 1 µM at Human Factor XIIa.

On to `CN1CCC(CNc2nccnc2C(=O)NCc2cc(F)c3c(N)nccc3c2)CC1` [Example 33.19], for which the values for the IC50 against Human FXIa and at Human Factor XIIa were greater than 40 µM and 10 to 40 µM, respectively.

On to `COc1cc2c(N)nccc2cc1CNC(=O)c1nccnc1NCC1CCN(C)CC1` [Example 33.20], for which the IC50 against Human FXIa was 13.5 µM; at Human Factor XIIa, 1 to 3 µM.

With `CN1CCC(CNc2nccnc2C(=O)NCc2cc3c(N)nccc3s2)CC1` [Example 33.21], the results for the IC50 against Human FXIa and at Human Factor XIIa were greater than 40 µM and 3 to 10 µM, respectively.

The record behind these values is patent publication US20220298141A1, “ENZYME INHIBITORS” (KALVISTA PHARMACEUTICALS LIMITED, priority 2019, published 2022).
